Source: patent publication US20250051361A1, “5,6,7,8-TETRAHYDRO-2,6-NAPHTHYRIDINE DERIVATIVES AS CANCER THERAPEUTICS” (VRise Therapeutics, Inc., priority 2021, published 2025)
Structures can show the parent of a compound that is named as a salt.

How the values were obtained:
AGS cells = test: In vitro cell proliferation assay in AGS cell line; type: cell-based; conditions: Homo sapiens; for inhibition at 3 µM: TC1: Test Concentration of 3 uM; for inhibition at 10 µM: TC2: Test Concentration of 10 uM
Experimental: (§1) Test 1: In Vitro Cell Proliferation Assay in HPAC and AGS Cell Lines
(§2) Growth inhibition assays was carried out using 10% FBS supplemented media. Cells are to be seeded at a concentration of 2000-3,000 cells/well in a 96-well plate. Test compounds at a concentration range from 0.1 to 30 uM will be added after 24 hours. Growth will be assessed using the MTT or CCK-8 kit for measuring reduction at 0 h (prior to the addition of the test compound) and 72 to 96 hours after the addition of test compound. Absorbance read on a BIO-RAD iMark Microplate or any equivalent micloplate reader at a wavelength of 450 nm to 600 nm. Data will be analyzed and percent inhibition due to the test compound compared to the control is calculated accordingly.

HPAC cells = test: In vitro cell proliferation assay in HPAC cell line; type: cell-based; conditions: for inhibition at 3 µM / inhibition at 10 µM: Homo sapiens; for inhibition at 3 µM / % Inhibition of Cell Proliferation HPAC TC1: TC1: Test Concentration of 3 uM; for inhibition at 10 µM: TC2: Test Concentration of 10 uM; for % Inhibition of Cell Proliferation HPAC TC1: 3 µM
Experimental: as §1, §2

human KRAS G12D protein = biological target: T1, human KRAS G12D protein (Homo sapiens, UniProt P01116, G12D); test: HTRF-based nucleotide exchange assay detecting GTP binding to K-Ras; type: biochemical; conditions: human KRAS G12D (amino acid 2-169), SOS1 mediated exchange
T1 construct: A human KRAS G12D protein (corresponding to amino acid 2-169)
Experimental: Test 3: Nucleotide Exchange Assay HTRF-based nucleotide exchange assay detecting GTP binding to K-Ras A human KRAS G12D protein (corresponding to amino acid 2-169) was mixed with a a-GST Tb antibody (1.5× solution) and 10 uL of the solution was added to the reaction wells). Compounds (each 10 concentrations or any other concentration of choice at 3-fold or fold of choice for serial dilutions with a starting concentration of […] or or 100 μM or 50 uM) were then delivered to the reaction wells using acoustic dispenser (Echo, Labcyte) and incubated with the Kras/aGST-Tb antibody for 1-hour at room temperature. […] HTRF based SOS1 mediated exchange of GDP to GTP was measured on a microplate reader […] (BMG Labtech) at an excitation wavelength of 337 nm and emission wavelengths of 665 and 620 nm. No-SOS1 reaction or highest control compound concentration was used as blank and % inhibition was calculated and/or IC50 was determined using Sigmoidal dose response (variable slope) equation.

T1 sequence (P01116 2-169 isoform P01116-2 G12D): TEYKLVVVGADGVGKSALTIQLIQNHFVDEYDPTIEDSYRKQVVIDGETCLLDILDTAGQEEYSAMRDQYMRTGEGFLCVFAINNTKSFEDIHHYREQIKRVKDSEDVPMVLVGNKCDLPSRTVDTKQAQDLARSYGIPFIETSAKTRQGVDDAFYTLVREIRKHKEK

SMILES | inhibition at 3 µM (AGS cells) | inhibition at 10 µM (AGS cells) | inhibition at 3 µM (HPAC cells) | inhibition at 10 µM (HPAC cells) | also measured
CN1CCC[C@H]1COc1nc(N2CC3CCC(C2)N3)c2c(c1C#N)CN(c1cc(O)cc3ccccc13)CC2 [Ex 1, 1-(3,8-diazabicyclo[3.2.1]octan-3-yl)-6-(3-hydroxynaphthalen-1-yl)-3-(((S)-1-methylpyrrolidin-2-yl)methoxy)-5,6,7,8-tetrahydro-2,6-naphthyridine-4-carbonitrile, hydrochloride] | 25 to 50% | 75 to 100% | – | – | –
CN1CCC[C@H]1COc1nc(N2CCNC(CC#N)C2)c2c(c1C#N)CN(c1cccc3cccc(Cl)c13)CC2 (stereo partly drawn) [Ex 3, 6-(8-chloronaphthalen-1-yl)-1-(3-(cyanomethyl)piperazin-1-yl)-3-(((S)-1-methylpyrrolidin-2-yl)methoxy)-5,6,7,8-tetrahydro-2,6-naphthyridine-4-carbonitrile hydrochloride] | 25 to 50% | 75 to 100% | – | – | –
CN1CCC[C@H]1COc1nc(N2[C@@H]3CC[C@H]2CN(C(=O)OC(C)(C)C)C3)c2c(c1C#N)CN(c1cc(O)cc3ccccc13)CC2 [Ex 4, tert-butyl (1R,5S)-8-(4-cyano-6-(3-hydroxynaphthalen-1-yl)-3-(((S)-1-methylpyrrolidin-2-yl)methoxy)-5,6,7,8-tetrahydro-2,6-naphthyridin-1-yl)-3,8-diazabicyclo[3.2.1]octane-3-carboxylate] | 75 to 100% | 75 to 100% | – | – | –
CN1CCC[C@H]1COc1nc(N2[C@@H]3CC[C@H]2CNC3)c2c(c1C#N)CN(c1cc(O)cc3ccccc13)CC2 [Ex 5, 1-((1R,5S)-3,8-diazabicyclo[3.2.1]octan-8-yl)-6-(3-hydroxynaphthalen-1-yl)-3-(((S)-1-methylpyrrolidin-2-yl)methoxy)-5,6,7,8-tetrahydro-2,6-naphthyridine-4-carbonitrile Hydrochloride] | 25 to 50% | 75 to 100% | – | – | –
N#Cc1c(OCC23CCCN2CCC3)nc(N2[C@@H]3CC[C@H]2CNC3)c2c1CN(c1cccc3cccc(Br)c13)CC2 [Ex 7, 1-((1R,5S)-3,8-diazabicyclo[3.2.1]octan-8-yl)-6-(8-bromonaphthalen-1-yl)-3-((tetrahydro-1H-pyrrolizin-7a(5H)-yl)methoxy)-5,6,7,8-tetrahydro-2,6-naphthyridine-4-carbonitrile TFA salt] | – | – | 75 to 100% | 75 to 100% | –
C#Cc1cccc2cccc(N3CCc4c(N5[C@@H]6CC[C@H]5CNC6)nc(OCC56CCCN5CCC6)c(C#N)c4C3)c12 [Ex 8, 1-((1R,5S)-3,8-diazabicyclo[3.2.1]octan-8-yl)-6-(8-ethynylnaphthalen-1-yl)-3-((tetrahydro-1H-pyrrolizin-7a(5H)-yl)methoxy)-5,6,7,8-tetrahydro-2,6-naphthyridine-4-carbonitrile TFA Salt] | – | – | – | 50 to 75% | % Inhibition of Cell Proliferation HPAC TC1 (HPAC cells; TFA Salt): A (A = ≤25%)
N#Cc1c(OCC23CCCN2CCC3)nc(N2[C@@H]3CC[C@H]2CNC3)c2c1CN(c1cc(O)cc3cccc(Br)c13)CC2 [Ex 9, 1-((1R,5S)-3,8-diazabicyclo[3.2.1]octan-8-yl)-6-(8-bromo-3-hydroxynaphthalen-1-yl)-3-((tetrahydro-1H-pyrrolizin-7a(5H)-yl)methoxy)-5,6,7,8-tetrahydro-2,6-naphthyridine-4-carbonitrile Hydrochloride] | – | – | ≤ 25% | 75 to 100% | –
CN1CCC[C@H]1COc1nc(N2[C@@H]3CC[C@H]2CNC3)c2c(c1C#N)CN(c1cccc3cccc(Br)c13)CC2 [Ex 10, 1-((1R,5S)-3,8-diazabicyclo[3.2.1]octan-8-yl)-6-(8-bromonaphthalen-1-yl)-3-(((S)-1-methylpyrrolidin-2-yl)methoxy)-5,6,7,8-tetrahydro-2,6-naphthyridine-4-carbonitrile Hydrochloride] | – | – | 75 to 100% | 75 to 100% | –
C#Cc1cccc2cccc(N3CCc4c(N5[C@@H]6CC[C@H]5CNC6)nc(OCC56CCCN5CCC6)c(C#N)c4C3)c12 [Ex 12, 1-((1R,5S)-3,8-diazabicyclo[3.2.1]octan-8-yl)-6-(8-ethynylnaphthalen-1-yl)-3-((tetrahydro-1H-pyrrolizin-7a(5H)-yl)methoxy)-5,6,7,8-tetrahydro-2,6-naphthyridine-4-carbonitrile Hydrochloride] | – | – | – | – | % Inhibition of Cell Proliferation HPAC TC1 (HPAC cells; Hydrochloride): C (C = >50 to ≤75)
C#Cc1cccc2cc(O)cc(N3CCc4c(N5[C@@H]6CC[C@H]5CNC6)nc(OCC56CCCN5CCC6)c(C#N)c4C3)c12 [Ex 14, 1-((1R,5S)-3,8-diazabicyclo[3.2.1]octan-8-yl)-6-(8-ethynyl-3-hydroxynaphthalen-1-yl)-3-((tetrahydro-1H-pyrrolizin-7a(5H)-yl)methoxy)-5,6,7,8-tetrahydro-2,6-naphthyridine-4-carbonitrile Hydrochloride] | – | – | ≤ 25% | 50 to 75% | –
CN1CCC[C@H]1COc1nc(N2[C@@H]3CC[C@H]2CNC3)c2c(c1C#N)CN(c1cc(O)cc3cccc(Br)c13)CC2 [Ex 15, 1-((1R,5S)-3,8-diazabicyclo[3.2.1]octan-8-yl)-6-(8-bromo-3-hydroxynaphthalen-1-yl)-3-(((S)-1-methylpyrrolidin-2-yl)methoxy)-5,6,7,8-tetrahydro-2,6-naphthyridine-4-carbonitrile Hydrochloride] | – | – | ≤ 25% | 75 to 100% | –
CN1CCC[C@H]1COc1nc(N2CC3CCC(C2)N3)c2c(c1C#N)CN(Cc1ccccc1)CC2 [Ex 18, 6-benzyl-1-(3,8-diazabicyclo[3.2.1]octan-3-yl)-3-(((S)-1-methylpyrrolidin-2-yl)methoxy)-5,6,7,8-tetrahydro-2,6-naphthyridine-4-carbonitrile Hydrochloride] | 25 to 50% | 75 to 100% | ≤ 25% | 25 to 50% | –
N#Cc1c(OCC23CCCN2C[C@H](F)C3)nc(N2CC3CCC(C2)N3)c2c1CN(Cc1ccccc1)CC2 (stereo partly drawn) [Ex 19, 6-benzyl-1-(3,8-diazabicyclo[3.2.1]octan-3-yl)-3-(((2R)-2-fluorotetrahydro-1H-pyrrolizin-7a(5H)-yl)methoxy)-5,6,7,8-tetrahydro-2,6-naphthyridine-4-carbonitrile Hydrochloride] | 25 to 50% | 50 to 75% | ≤ 25% | 75 to 100% | IC50 (human KRAS G12D protein): > 1000 nM
CC(C)[C@@H](NC(=O)OC(C)(C)C)C(=O)N1CCN(c2nc(OC[C@@H]3CCCN3C)c(C#N)c3c2CCN(Cc2ccccc2)C3)CC1 [Ex 20, tert-butyl ((R)-1-(4-(6-benzyl-4-cyano-3-(((S)-1-methylpyrrolidin-2-yl)methoxy)-5,6,7,8-tetrahydro-2,6-naphthyridin-1-yl)piperazin-1-yl)-3-methyl-1-oxobutan-2-yl)carbamate] | – | – | ≤ 25% | 25 to 50% | –
CC(C)[C@@H](N)C(=O)N1CCN(c2nc(OC[C@@H]3CCCN3C)c(C#N)c3c2CCN(Cc2ccccc2)C3)CC1 [Ex 21, 1-(4-(D-valyl)piperazin-1-yl)-6-benzyl-3-(((S)-1-methylpyrrolidin-2-yl)methoxy)-5,6,7,8-tetrahydro-2,6-naphthyridine-4-carbonitrile Hydrochloride] | – | – | ≤ 25% | ≤ 25% | –
C[C@@H](OCc1ccccc1)[C@H](N)C(=O)N1CCN(c2nc(OC[C@@H]3CCCN3C)c(C#N)c3c2CCN(Cc2ccccc2)C3)CC1 [Ex 23, 6-benzyl-1-(4-(O-benzyl-L-threonyl)piperazin-1-yl)-3-(((S)-1-methylpyrrolidin-2-yl)methoxy)-5,6,7,8-tetrahydro-2,6-naphthyridine-4-carbonitrile Hydrochloride] | – | – | ≤ 25% | 50 to 75% | –
N#Cc1c(OCC2(CN3CCOCC3)CC2)nc(N2C[C@H]3CC[C@@H](C2)N3)c2c1CN(Cc1ccccc1)CC2 [Ex 24, 6-benzyl-1-((1R,5S)-3,8-diazabicyclo[3.2.1]octan-3-yl)-3-((1-(morpholinomethyl)cyclopropyl)methoxy)-5,6,7,8-tetrahydro-2,6-naphthyridine-4-carbonitrile Hydrochloride] | – | – | ≤ 25% | 25 to 50% | IC50 (human KRAS G12D protein): > 1000 nM
C[C@H]1CNCCN1c1nc(OCC2CCCN2C)c(C#N)c2c1CCN(Cc1ccccc1)C2 (stereo partly drawn) [Ex 75, 6-benzyl-1-((S)-2-methylpiperazin-1-yl)-3-((1-methylpyrrolidin-2-yl)methoxy)-5,6,7,8-tetrahydro-2,6-naphthyridine-4-carbonitrile hydrochloride] | ≤ 25% | ≤ 25% | ≤ 25% | ≤ 25% | –
